Experimental data taken from ChEMBL document CHEMBL5465560, “Selectivity Literature for EUbOPEN Chemogenomic Library” (2024).
Each block holds one compound with its values, some of them ahead of it.

Experiments:
[1] = biological target: Beta-2 adrenergic receptor (Homo sapiens, UniProt P07550); experiment: Selectivity interaction (Panel of non-epigenetic targets (kinases, GPCRs, ion channels, and transporters, Eurofins) ) EUB0000271b ADRB2; conditions: at 1 µM
[2] = biological target: Ephrin type-A receptor 7 (Homo sapiens) (UniProt Q15375); conditions: at 10 µM
Chain of Ephrin type-A receptor 7 (Homo sapiens) (Q15375 28-998 limits assumed): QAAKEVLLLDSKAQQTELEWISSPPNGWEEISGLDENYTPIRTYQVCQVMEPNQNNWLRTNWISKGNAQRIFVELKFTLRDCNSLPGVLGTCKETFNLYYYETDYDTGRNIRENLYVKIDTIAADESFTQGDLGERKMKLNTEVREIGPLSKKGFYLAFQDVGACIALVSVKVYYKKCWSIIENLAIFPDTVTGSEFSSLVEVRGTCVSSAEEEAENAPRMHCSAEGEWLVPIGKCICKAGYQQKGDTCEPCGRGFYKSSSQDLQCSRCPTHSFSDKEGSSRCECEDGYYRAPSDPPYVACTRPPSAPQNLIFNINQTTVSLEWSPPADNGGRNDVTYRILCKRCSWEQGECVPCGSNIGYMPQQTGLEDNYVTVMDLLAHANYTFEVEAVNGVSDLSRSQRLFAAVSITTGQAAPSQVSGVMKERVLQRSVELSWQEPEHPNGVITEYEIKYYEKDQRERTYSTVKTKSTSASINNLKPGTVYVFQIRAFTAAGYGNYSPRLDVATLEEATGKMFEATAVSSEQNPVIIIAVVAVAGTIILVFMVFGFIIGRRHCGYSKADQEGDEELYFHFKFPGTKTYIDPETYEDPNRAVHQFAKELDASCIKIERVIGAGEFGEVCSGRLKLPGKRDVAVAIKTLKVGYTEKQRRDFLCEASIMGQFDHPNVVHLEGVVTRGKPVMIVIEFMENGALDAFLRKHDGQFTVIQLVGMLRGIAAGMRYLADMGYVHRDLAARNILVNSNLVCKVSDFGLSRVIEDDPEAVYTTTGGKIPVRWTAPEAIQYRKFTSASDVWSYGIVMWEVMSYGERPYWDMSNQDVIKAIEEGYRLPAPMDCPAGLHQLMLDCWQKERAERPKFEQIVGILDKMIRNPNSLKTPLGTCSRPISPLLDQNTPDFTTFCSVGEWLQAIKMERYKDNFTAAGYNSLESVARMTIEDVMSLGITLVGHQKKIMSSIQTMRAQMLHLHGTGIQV

[3] = biological target: Mitotic checkpoint serine/threonine-protein kinase BUB1 (Homo sapiens, UniProt O43683); experiment: Selectivity interaction (KinomeScan (DiscoverX)) EUB0001079a BUB1; conditions: at 1 µM
[4] = biological target: Tyrosine-protein kinase receptor UFO (Homo sapiens) (UniProt P30530); experiment: Selectivity interaction (KinomeScan (DiscoverX)) EUB0001079a AXL; conditions: at 1 µM
[5] = biological target: Cyclin-dependent kinase 16 (Homo sapiens) (UniProt Q00536); experiment: Selectivity interaction (ActivX KiNativ screen (ex vivo kinase selectivity in human PBMCs)) EUB0001619a CDK16; assay type: cell-based; conditions: PBMC, at 1 µM
Chain of Cyclin-dependent kinase 16 (Homo sapiens) (Q00536 whole entry): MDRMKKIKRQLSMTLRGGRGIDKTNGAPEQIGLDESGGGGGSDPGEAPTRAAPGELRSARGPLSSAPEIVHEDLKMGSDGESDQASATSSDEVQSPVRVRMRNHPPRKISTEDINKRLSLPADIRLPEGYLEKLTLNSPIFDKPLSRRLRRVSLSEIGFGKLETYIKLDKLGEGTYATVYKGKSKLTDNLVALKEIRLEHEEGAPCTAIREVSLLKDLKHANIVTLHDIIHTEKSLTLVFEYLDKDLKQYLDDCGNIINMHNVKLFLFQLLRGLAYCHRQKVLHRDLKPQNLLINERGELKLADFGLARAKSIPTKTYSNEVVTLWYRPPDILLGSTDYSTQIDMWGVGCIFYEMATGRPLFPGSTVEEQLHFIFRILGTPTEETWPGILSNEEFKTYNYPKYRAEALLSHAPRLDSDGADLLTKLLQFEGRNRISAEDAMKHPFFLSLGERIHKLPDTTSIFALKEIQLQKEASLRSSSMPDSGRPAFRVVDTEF

[6] = biological target: Interferon-induced, double-stranded RNA-activated protein kinase (Homo sapiens) (UniProt P19525); experiment: Selectivity interaction (KinomeScan (DiscoverX)) EUB0001619a EIF2AK2; conditions: at 1 µM
Chain of Interferon-induced, double-stranded RNA-activated protein kinase (Homo sapiens) (P19525 whole entry): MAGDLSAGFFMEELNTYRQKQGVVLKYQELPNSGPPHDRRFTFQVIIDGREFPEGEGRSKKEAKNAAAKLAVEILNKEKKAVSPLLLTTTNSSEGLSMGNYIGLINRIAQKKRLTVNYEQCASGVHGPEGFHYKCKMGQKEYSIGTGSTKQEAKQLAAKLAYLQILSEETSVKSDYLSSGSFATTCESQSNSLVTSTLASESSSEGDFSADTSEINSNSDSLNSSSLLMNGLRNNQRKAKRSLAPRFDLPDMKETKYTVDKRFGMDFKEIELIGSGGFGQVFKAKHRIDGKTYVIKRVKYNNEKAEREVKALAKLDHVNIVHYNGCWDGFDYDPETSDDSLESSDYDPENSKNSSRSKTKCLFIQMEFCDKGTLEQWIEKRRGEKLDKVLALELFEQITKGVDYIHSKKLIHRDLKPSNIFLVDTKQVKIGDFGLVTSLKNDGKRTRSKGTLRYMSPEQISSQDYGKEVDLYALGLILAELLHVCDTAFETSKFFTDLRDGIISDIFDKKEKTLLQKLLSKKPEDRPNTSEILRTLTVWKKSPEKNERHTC

[7] = biological target: Serine/threonine-protein kinase PAK 6 (Homo sapiens) (UniProt Q9NQU5); experiment: Selectivity interaction (KinomeScan (DiscoverX)) EUB0001619a PAK6; conditions: at 1 µM
Chain of Serine/threonine-protein kinase PAK 6 (Homo sapiens) (Q9NQU5 whole entry, looked up): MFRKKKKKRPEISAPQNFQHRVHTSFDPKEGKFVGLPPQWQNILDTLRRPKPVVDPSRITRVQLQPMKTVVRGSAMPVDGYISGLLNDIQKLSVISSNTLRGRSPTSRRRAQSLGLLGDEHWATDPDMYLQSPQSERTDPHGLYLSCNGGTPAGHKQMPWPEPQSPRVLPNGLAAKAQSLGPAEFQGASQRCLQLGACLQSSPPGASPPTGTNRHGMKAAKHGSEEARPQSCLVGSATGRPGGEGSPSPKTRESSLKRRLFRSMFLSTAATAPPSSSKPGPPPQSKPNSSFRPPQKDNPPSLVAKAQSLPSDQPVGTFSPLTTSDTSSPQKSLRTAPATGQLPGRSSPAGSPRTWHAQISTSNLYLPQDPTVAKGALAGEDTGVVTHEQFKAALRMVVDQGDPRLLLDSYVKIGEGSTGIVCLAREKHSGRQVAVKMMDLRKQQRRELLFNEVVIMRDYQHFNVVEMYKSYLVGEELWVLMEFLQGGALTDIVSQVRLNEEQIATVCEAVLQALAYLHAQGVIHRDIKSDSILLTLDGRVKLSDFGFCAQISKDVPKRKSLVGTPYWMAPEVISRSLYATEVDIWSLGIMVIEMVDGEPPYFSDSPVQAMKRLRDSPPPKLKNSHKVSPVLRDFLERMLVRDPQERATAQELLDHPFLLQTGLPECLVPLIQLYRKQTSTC

SRSF protein kinase 1 = SRSF protein kinase 1 (Homo sapiens, UniProt Q96SB4); experiment: Selectivity interaction (Kinase panel (DSF assay)) EUB0001558a SRPK1
[8] = biological target: G protein-coupled receptor kinase 4 (Homo sapiens) (UniProt P32298); experiment: Selectivity interaction (KinomeScan (DiscoverX)) EUB0000045b GRK4
Chain of G protein-coupled receptor kinase 4 (Homo sapiens) (P32298 whole entry, looked up): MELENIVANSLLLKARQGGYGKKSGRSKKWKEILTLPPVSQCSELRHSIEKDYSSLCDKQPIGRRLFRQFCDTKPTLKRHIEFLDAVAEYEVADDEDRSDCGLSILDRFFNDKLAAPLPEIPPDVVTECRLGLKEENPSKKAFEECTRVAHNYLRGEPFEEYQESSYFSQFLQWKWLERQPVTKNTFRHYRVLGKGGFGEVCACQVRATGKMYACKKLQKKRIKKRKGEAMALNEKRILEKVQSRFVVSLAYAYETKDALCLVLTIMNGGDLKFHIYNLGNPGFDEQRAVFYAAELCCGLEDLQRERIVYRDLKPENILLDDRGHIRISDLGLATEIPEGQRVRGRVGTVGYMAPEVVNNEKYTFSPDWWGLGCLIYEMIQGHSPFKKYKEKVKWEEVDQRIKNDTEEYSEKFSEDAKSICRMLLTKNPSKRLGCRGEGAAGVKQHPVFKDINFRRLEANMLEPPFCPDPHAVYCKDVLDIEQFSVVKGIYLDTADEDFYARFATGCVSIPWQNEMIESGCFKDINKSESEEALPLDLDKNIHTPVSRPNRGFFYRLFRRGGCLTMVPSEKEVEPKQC

[9] = biological target: MAP/microtubule affinity-regulating kinase 3 (Homo sapiens) (UniProt P27448); experiment: Selectivity interaction (KinomeScan (DiscoverX)) EUB0000595a MARK3; conditions: at 10 µM
[10] = biological target: Ribosomal protein S6 kinase alpha-3 (Homo sapiens, UniProt P51812); experiment: Selectivity interaction (Kinase panel (KiNativ target engagement assay in Jurkat cells)) EUB0001635a RPS6KA3; assay type: cell-based; conditions: Selectivity number of off-targets 0.0, Selectivity number of targets 233.0, Source Knowledge https://www.sciencedirect.com/science/article/pii/S2451945619300674?via%3Dihub, at 1 µM
[11] = biological target: Dual specificity mitogen-activated protein kinase kinase 2 (Homo sapiens) (UniProt P36507); experiment: Selectivity interaction (ActivX KiNativ screen (kinase selectivity in THP-1 cell lysates)) EUB0000639a MAP2K2; assay type: subcellular; conditions: lysate
Chain of Dual specificity mitogen-activated protein kinase kinase 2 (Homo sapiens) (P36507 whole entry): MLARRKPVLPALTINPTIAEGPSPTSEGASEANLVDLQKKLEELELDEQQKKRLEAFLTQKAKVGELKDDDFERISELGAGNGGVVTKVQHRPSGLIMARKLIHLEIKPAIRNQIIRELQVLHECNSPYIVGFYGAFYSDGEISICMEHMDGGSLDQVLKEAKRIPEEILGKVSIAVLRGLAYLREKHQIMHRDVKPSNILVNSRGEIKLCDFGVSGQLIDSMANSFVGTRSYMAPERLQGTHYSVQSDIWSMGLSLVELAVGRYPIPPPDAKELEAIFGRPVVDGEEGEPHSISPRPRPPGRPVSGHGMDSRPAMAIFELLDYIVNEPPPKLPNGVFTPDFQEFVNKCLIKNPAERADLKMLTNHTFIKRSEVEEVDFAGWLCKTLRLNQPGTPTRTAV

[12] = biological target: T1, Mitogen-activated protein kinase kinase kinase 5 (Homo sapiens) (UniProt Q99683); experiment: Selectivity interaction (ActivX KiNativ screen (kinase selectivity in THP-1 cell lysates)) EUB0000639a MAP3K5; assay type: subcellular; conditions: lysate, at 0.04 µM
T1 sequence (whole entry): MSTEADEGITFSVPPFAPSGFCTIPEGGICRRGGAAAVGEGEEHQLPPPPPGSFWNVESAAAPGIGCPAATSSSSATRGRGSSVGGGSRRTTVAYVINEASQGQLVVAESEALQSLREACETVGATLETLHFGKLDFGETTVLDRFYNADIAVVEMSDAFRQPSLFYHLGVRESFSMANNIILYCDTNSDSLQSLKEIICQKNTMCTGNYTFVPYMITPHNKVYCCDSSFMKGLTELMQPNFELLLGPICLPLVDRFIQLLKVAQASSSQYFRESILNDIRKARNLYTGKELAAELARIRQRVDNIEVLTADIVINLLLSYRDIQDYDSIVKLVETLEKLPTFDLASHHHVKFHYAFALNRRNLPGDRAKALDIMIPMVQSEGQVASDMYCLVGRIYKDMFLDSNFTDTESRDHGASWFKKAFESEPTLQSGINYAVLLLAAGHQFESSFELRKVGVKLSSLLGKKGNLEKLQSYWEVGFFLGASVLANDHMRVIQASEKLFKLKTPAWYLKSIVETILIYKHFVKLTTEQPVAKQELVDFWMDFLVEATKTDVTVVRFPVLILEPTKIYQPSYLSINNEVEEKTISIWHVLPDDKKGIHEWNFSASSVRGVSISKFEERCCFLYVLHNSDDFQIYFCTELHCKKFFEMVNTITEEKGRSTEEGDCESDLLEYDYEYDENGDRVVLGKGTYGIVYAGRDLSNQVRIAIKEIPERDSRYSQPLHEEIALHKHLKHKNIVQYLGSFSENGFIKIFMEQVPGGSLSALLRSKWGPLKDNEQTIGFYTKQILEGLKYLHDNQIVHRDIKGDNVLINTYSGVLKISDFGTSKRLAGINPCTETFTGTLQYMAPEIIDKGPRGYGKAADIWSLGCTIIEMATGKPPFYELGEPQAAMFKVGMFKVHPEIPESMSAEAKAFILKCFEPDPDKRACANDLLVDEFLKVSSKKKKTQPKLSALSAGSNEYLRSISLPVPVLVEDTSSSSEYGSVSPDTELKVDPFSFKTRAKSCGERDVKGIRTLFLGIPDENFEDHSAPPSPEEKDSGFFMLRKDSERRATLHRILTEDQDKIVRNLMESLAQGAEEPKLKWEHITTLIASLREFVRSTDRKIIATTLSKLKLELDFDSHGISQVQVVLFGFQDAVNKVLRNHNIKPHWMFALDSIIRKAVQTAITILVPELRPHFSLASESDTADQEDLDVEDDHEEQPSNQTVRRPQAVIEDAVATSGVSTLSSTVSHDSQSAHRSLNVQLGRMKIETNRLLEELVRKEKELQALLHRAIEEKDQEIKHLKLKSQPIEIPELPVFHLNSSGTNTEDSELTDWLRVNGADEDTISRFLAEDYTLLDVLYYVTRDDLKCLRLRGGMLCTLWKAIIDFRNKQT

[13] = biological target: Casein kinase I isoform gamma-1 (Homo sapiens) (UniProt Q9HCP0); experiment: Selectivity interaction (Kinase panel (Invitrogen)) EUB0000639a CSNK1G1; conditions: at 200 nM
Chain of Casein kinase I isoform gamma-1 (Homo sapiens) (Q9HCP0 whole entry, looked up, canonical isoform): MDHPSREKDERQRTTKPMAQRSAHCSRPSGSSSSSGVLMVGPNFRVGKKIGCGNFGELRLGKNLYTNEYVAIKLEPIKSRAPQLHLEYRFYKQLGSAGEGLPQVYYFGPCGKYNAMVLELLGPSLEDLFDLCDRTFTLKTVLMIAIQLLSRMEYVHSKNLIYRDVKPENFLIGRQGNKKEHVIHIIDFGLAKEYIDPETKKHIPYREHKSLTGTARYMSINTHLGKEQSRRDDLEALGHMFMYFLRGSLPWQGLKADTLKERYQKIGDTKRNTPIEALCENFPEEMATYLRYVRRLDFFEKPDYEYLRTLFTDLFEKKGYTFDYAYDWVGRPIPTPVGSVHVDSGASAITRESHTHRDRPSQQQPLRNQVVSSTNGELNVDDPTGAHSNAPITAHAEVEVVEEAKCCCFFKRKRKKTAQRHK

[14] = biological target: PH-interacting protein (Homo sapiens) (UniProt Q8WWQ0); experiment: Selectivity interaction (Bromodomain panel (DSF asssay)) EUB0000270b PHIP
[15] = biological target: AP2-associated protein kinase 1 (Homo sapiens, UniProt Q2M2I8); experiment: Selectivity interaction (KinomeScan (DiscoverX)) EUB0001049a AAK1; conditions: at 1 µM
[16] = biological target: Serine/threonine-protein kinase PAK 3 (Homo sapiens) (UniProt O75914); experiment: Selectivity interaction (KinomeScan (DiscoverX)) EUB0000666a PAK3; conditions: at 10 µM
[17] = biological target: Dual specificity mitogen-activated protein kinase kinase 2 (Homo sapiens) (UniProt P36507); experiment: Selectivity interaction (KinomeScan (DiscoverX)) EUB0001550a MAP2K2; conditions: at 1 µM
[18] = biological target: Serine/threonine-protein kinase Nek4 (Homo sapiens) (UniProt P51957); experiment: Selectivity interaction (Kinase panel (Z-LYTE Assay)) EUB0001632a NEK4; conditions: at 10 µM
Chain of Serine/threonine-protein kinase Nek4 (Homo sapiens) (P51957 whole entry, looked up): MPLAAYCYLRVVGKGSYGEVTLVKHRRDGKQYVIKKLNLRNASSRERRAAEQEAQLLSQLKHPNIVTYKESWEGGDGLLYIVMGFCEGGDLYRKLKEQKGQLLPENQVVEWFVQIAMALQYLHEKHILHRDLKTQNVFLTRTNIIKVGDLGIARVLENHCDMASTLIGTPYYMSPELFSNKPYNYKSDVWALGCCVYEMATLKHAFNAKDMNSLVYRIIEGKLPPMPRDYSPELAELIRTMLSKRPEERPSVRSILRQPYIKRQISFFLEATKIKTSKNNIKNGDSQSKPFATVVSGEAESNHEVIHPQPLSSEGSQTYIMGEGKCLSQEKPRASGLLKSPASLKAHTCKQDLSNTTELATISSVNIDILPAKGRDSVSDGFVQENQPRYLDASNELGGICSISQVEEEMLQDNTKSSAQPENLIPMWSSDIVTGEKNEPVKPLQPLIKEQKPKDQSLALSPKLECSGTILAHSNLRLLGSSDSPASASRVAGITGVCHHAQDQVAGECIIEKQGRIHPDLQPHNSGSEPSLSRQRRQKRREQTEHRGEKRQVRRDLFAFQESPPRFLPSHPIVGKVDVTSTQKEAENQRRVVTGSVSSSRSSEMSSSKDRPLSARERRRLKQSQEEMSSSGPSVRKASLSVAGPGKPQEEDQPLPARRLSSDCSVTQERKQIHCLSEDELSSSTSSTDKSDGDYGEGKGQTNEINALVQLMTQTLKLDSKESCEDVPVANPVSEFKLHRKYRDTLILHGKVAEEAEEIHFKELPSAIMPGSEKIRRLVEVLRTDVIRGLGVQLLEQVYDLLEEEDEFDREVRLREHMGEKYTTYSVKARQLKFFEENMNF

SMILES: Cc1cc(C)cc([C@@H]2c3cc(C)ccc3NC(=O)CN2C(=O)c2ccc(Br)s2)c1
- % of inhibition [1]: -7%

- % of control [2]: 100%
SMILES: CCN(CC)CCCCNc1ncc2cc(-c3cc(OC)cc(OC)c3)c(NC(=O)NC(C)(C)C)nc2n1

SMILES: Nc1cnc(N2CCc3cc(S(=O)(=O)Nc4c(F)cc(Cl)cc4F)cc(N4CCCC4=O)c32)nc1 [TP-020n]
- % of control [3]: 100%
- % of control [4]: 69%

SMILES: N#Cc1cccc(-c2c[nH]c3ncnc(N4CCOCC4)c23)c1
- % of inhibition [5]: 25%
- % of control [6]: 100%
- % of control [7]: 78%

SMILES: CC(C)(O)[C@H](F)CN1Cc2cc(NC(=O)c3cnn4cccnc34)c(N3CCOCC3)cc2C1=O
- dTM (SRSF protein kinase 1): 1.1 K

SMILES: C=CC(=O)Nc1cc(-n2c(=O)ccc3cnc4ccc(-c5ccc(NS(C)(=O)=O)cc5)cc4c32)ccc1C
- % of control ([8]; at 1 µM): 100%
- % of control ([8]; at 10 µM): 66%

SMILES: COCC(=O)NC/C=C/c1ccc2ncnc(Nc3ccc(Oc4ccc(C)nc4)c(C)c3)c2c1 [CP-724714]
- % of control [9]: 100%

SMILES: C=CC(=O)Nc1ccc(C(=O)Nc2[nH]nc3c2CN(C(=O)N[C@H](CN(C)C)c2ccccc2)C3(C)C)cc1
- % of engagement [10]: 12%

- % of inhibition ([11]; at 0.01 µM): -25.6%
- % of inhibition ([11]; at 0.04 µM): -4.8%
- % of inhibition ([11]; at 0.2 µM): -3.6%
- % of inhibition ([11]; at 1 µM): 3.1%
- % of inhibition ([11]; at 5 µM): 18.5%
- % of inhibition [12]: -7.7%
- % of inhibition [13]: 69.1%
SMILES: CC[C@@H]1[C@H](F)C(=O)N[C@@H]1COc1nccc2cc(C(N)=O)c(OC)cc12 [ZIMLOVISERTIB]

- dTM [14]: -1.36 K
SMILES: Cc1cc(CN)cc(C)c1-c1ncn(C)c1-c1cncn1C

SMILES: COc1cc(Nc2nc(C)cc(-c3cnn4nc(OC)ccc34)n2)cc(C(F)(F)F)c1
- % of control [15]: 96%

SMILES: O=C(NOC[C@H](O)CO)c1ccc(F)c(F)c1Nc1ccc(I)cc1F
- % of control [16]: 100%

- % of control [17]: 9.6%
SMILES: CN(C)CC#Cc1ccc2[nH]c3c(c2c1)-c1nc(N)ncc1CCC3

- % of control [18]: 0.309%
SMILES: Cn1cc(-n2cnc3c(NCc4nc5cc(Cl)c(Cl)cc5[nH]4)nc(N4CCOCC4)nc32)cn1
